ChEMBL document CHEMBL5260850, “The exploration of aza-quinolines as hematopoietic prostaglandin D synthase (H-PGDS) inhibitors with low brain exposure” (Bioorg Med Chem, 2020)
Calls of active or inactive are those of the source. The calls are words filed in the database; no cut-off is given here.

Columns and labels:
[1] = Half life in mouse liver microsomes pretreated for 5 mins followed by incubation with NADP for 30 secs and measured upto 45 mins by LC-MS/MS analysis; format: ADME, Microsome; conditions: time 3030 sec
Albumin = Albumin (Homo sapiens, UniProt P02768); assay: Protein binding in human serum albumin by HPLC analysis; format: ADME, cell-free; conditions: read-out: PB (converted)
Sequence of Albumin (P02768 whole entry): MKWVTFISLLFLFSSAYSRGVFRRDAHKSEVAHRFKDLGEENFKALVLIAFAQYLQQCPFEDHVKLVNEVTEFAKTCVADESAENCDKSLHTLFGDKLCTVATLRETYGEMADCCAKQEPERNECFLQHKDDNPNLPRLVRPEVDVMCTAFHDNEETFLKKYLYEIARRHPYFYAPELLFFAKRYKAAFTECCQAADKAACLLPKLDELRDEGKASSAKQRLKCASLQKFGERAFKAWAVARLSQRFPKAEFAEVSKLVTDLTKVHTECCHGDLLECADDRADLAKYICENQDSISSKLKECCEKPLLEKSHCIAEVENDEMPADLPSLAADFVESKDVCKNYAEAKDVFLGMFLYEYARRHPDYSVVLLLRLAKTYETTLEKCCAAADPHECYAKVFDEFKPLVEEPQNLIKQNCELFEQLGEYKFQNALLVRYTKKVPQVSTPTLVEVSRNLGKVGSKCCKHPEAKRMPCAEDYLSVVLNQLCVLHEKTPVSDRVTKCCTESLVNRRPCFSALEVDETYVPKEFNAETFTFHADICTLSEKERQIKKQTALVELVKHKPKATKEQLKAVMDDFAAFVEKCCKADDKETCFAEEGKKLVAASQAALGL

[2] = Terminal half life in mouse at 1 mg/kg, iv; format: ADME, organism-based; conditions: in vivo, read-out: beta t1/2 (converted)
[3] = Clearance in rat at 0.4 mg/kg, iv; format: ADME, organism-based; conditions: in vivo
[4] = Volume of distribution at steady state in rat at 0.4 mg/kg, iv; format: ADME, organism-based; conditions: in vivo, read-out: Vdss
[5] = target: Prostaglandin-H2 D-isomerase (Homo sapiens, UniProt P41222); assay: Inhibition of L-PGDS (unknown origin)
Sequence of Prostaglandin-H2 D-isomerase (P41222 whole entry): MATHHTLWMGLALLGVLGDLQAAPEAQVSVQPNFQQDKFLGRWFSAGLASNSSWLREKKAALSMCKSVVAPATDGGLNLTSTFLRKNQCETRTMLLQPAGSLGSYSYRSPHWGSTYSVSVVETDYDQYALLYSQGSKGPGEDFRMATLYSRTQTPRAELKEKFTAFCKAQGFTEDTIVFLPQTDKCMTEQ

[6] = target: Sodium channel protein type 5 subunit alpha (Homo sapiens, UniProt Q14524); assay: Inhibition of Nav1.5 channel (unknown origin) upto 10000 nM; conditions: 10 µM
Cytochrome P450 3A4 = Cytochrome P450 3A4 (Homo sapiens, UniProt P08684); assay: Inhibition of CYP3A4 (unknown origin); format: ADME
[7] = Selectivity ratio of EC50 for inhibition of H-PGDS in rat RBL cells assessed as reduction in A23187-induced PGD2 production to EC50 for anti-inflammatory activity against po dosed C57BL/6J mouse assessed as reduction in compound 48/80-induced PGD2 release into peritoneal lavage fluid
[8] = Selectivity ratio of EC50 for inhibition of H-PGDS in rat RBL cells assessed as reduction in A23187-induced PGD2 production to EC50 for anti-inflammatory activity against po dosed C57BL6/N mouse assessed as reduction in LPS-induced PGD2 level in plasma
Mus musculus [9] = assay: Anti-inflammatory activity against C57BL/6N mouse assessed as inhibition of muscle function loss by measuring functional recovery of injured limb muscles administered orally for 10 mins prior to unilateral eccentric contraction and QD for 16 days thereafter; conditions: 384 h, route po, time 16 day
[10] = Cmax in eccentric contraction-induced muscle injury C57BL/6N mouse model administered orally for 10 mins prior to unilateral eccentric contraction and QD for 16 days thereafter; format: ADME; parameters: time 16 day, route po; conditions: in vivo, po
[11] = AUC (0 to last) in mdx mouse administered orally 10 mins prior to unilateral eccentric contraction and QD for 43 days thereafter; format: ADME; parameters: time 43 day, route po; conditions: in vivo, po
[12] = Free Cmax in mdx mouse administered orally 10 mins prior to unilateral eccentric contraction and QD for 43 days thereafter; format: ADME; conditions: in vivo, po, 1032 h, time 43 day
[13] = Toxicity in C57BL/6N mouse assessed as seizures administered orally for 10 mins prior to unilateral eccentric contraction and QD for 16 days thereafter; conditions: in vivo, po, 384 h, time 16 day
[14] = Ratio of drug level in muscle to plasma in C57BL/6N mouse administered orally for 10 mins prior to unilateral eccentric contraction and QD for 43 days thereafter; format: toxicity, cell-free, Muscle tissue/plasma; conditions: route po, time 43 day
[15] = Toxicity in Wistar Han rat assessed as morphological changes in kidney at 30 mg/kg/day, po administered QD for 7 days by microscopic analysis; format: organism-based; conditions: in vivo, 168 h, time 7 day
[16] = Toxicity in Wistar Han rat assessed as morphological changes in adrenal gland at 30 mg/kg/day, po administered QD for 7 days by microscopic analysis; format: organism-based; conditions: in vivo, 168 h, time 7 day
[17] = Toxicity in Wistar Han rat assessed as animal death at 100 mg/kg/day, po administered QD for 7 days; format: organism-based; conditions: in vivo, 168 h, time 7 day
[18] = Toxicity in Wistar Han rat assessed as proximal tubular vacuolation and hyaline cast formation in kidney at 100 mg/kg/day, po administered QD for 7 days by microscopic analysis; format: organism-based; conditions: in vivo, 168 h, time 7 day
[19] = AUC in Wistar Han rat at 10 mg/kg/day, po QD for 7 days; format: ADME, organism-based; parameters: dose 10 mg/kg/day, time 7 day, route po; conditions: in vivo
[20] = AUC in Wistar Han rat at 30 mg/kg/day, po QD for 7 days; format: ADME, organism-based; parameters: dose 30 mg/kg/day, time 7 day, route po; conditions: in vivo
[21] = Cmax in Wistar Han rat at 100 mg/kg/day, po QD for 7 days; format: ADME, organism-based; parameters: dose 100 mg/kg/day, time 7 day, route po; conditions: in vivo
[22] = CNS toxicity in Wistar Han rat at 10 to 100 mg/kg/day, po QD for 7 days; format: organism-based; conditions: in vivo, 168 h, dose 10-100 mg/kg/day, time 7 day
[23] = Toxicity in dog assessed as deterioration in clinical condition at 75 mg/kg/day, po QD for 4 days; format: organism-based, Canis lupus familiaris; conditions: in vivo, 96 h, time 4 day
[24] = Toxicity in dog assessed as degeneration of zona glomerulosa in adrenal gland at 75 mg/kg/day, po QD for 4 days by microscopic analysis; format: organism-based, Canis lupus familiaris; conditions: in vivo, 96 h, time 4 day
[25] = Toxicity in dog assessed as clinical pathological changes by measuring increase in hepatobiliary parameters at 75 mg/kg/day, po QD for 4 days; format: organism-based, Canis lupus familiaris; conditions: in vivo, 96 h, time 4 day
[26] = AUC in dog at 30 mg/kg/day, po QD for 4 days; format: ADME, organism-based, Canis lupus familiaris; parameters: dose 30 mg/kg/day, time 4 day, route po; conditions: in vivo
[27] = Cmax in dog at 10 mg/kg/day, po QD for 4 days; format: ADME, organism-based, Canis lupus familiaris; parameters: dose 10 mg/kg/day, time 4 day, route po; conditions: in vivo
[28] = Cmax in dog at 30 mg/kg/day, po QD for 4 days; format: ADME, organism-based, Canis lupus familiaris; parameters: time 4 day, dose 30 mg/kg/day, route po; conditions: in vivo
[29] = Cmax in dog at 75 mg/kg/day, po QD for 4 days; format: ADME, organism-based, Canis lupus familiaris; parameters: dose 75 mg/kg/day, time 4 day, route po; conditions: in vivo
Mus musculus [30] = assay: Anti-inflammatory activity against C57BL6/N mouse assessed as EC50 required for reduction in LPS-induced PGD2 level in plasma administered orally with compound and 1 hr later treated with LPS and measured after 30 mins by LC-MS/MS analysis; format: functional, organism-based; conditions: C57BL/6N
[31] = target: 5-hydroxytryptamine receptor 1B (Homo sapiens) (UniProt P28222); conditions: dose <= 10000.0 nM
Sequence of 5-hydroxytryptamine receptor 1B (Homo sapiens) (P28222 whole entry): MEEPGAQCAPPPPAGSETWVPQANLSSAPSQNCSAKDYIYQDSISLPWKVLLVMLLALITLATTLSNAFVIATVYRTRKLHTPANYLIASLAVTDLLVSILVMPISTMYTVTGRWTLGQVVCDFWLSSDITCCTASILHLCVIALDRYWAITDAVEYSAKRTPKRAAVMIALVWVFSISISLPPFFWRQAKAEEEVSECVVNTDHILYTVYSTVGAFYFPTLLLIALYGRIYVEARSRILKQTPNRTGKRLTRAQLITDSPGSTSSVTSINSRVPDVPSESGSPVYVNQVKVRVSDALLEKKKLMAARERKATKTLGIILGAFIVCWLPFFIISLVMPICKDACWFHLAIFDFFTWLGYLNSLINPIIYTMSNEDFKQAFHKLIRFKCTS
Description: Inhibition of 5-HT1B receptor (unknown origin) upto 10000 nM

[32] = target: Alpha-1B adrenergic receptor (Homo sapiens) (UniProt P35368); conditions: dose <= 10000.0 nM
Sequence of Alpha-1B adrenergic receptor (Homo sapiens) (P35368 whole entry): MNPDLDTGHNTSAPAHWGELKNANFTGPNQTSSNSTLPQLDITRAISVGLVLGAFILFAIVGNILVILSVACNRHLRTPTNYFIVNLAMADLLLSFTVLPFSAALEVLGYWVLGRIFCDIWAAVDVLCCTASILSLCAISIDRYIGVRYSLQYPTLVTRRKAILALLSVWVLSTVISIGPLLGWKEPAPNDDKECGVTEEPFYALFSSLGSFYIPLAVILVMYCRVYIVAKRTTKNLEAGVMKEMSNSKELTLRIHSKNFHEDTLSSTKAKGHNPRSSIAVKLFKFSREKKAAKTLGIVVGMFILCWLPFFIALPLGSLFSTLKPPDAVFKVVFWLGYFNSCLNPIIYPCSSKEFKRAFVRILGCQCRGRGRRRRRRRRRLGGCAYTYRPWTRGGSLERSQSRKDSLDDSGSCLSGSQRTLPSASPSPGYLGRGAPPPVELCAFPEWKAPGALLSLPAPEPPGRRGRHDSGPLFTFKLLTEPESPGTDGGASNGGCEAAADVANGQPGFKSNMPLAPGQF
Description: Inhibition of alpha1B adrenergic receptor (unknown origin) upto 10000 nM

[33] = target: Alpha-2C adrenergic receptor (Homo sapiens) (UniProt P18825); conditions: dose <= 10000.0 nM
Sequence of Alpha-2C adrenergic receptor (Homo sapiens) (P18825 whole entry): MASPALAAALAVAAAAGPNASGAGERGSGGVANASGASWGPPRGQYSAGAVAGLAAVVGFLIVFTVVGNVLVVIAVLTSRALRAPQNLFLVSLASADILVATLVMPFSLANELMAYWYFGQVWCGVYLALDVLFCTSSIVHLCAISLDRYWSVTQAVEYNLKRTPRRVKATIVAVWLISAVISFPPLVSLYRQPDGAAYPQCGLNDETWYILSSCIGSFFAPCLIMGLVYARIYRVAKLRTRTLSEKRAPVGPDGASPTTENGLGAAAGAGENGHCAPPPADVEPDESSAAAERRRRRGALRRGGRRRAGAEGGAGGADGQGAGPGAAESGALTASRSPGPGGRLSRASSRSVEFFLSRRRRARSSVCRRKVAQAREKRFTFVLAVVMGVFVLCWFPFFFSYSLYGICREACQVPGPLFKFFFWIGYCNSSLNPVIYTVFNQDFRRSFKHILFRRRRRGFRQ
Description: Inhibition of alpha2C adrenergic receptor (unknown origin) upto 10000 nM

[34] = target: Adenosine receptor A2a (Homo sapiens) (UniProt P29274); conditions: dose <= 10000.0 nM
Description: Inhibition of adenosine A2A receptor (unknown origin) upto 10000 nM

[35] = target: D(1A) dopamine receptor (Homo sapiens) (UniProt P21728); conditions: dose <= 10000.0 nM
Description: Inhibition of dopamine D1 receptor (unknown origin) upto 10000 nM

[36] = target: D(2) dopamine receptor (Homo sapiens) (UniProt P14416); conditions: dose <= 10000.0 nM
Sequence of D(2) dopamine receptor (Homo sapiens) (P14416 whole entry): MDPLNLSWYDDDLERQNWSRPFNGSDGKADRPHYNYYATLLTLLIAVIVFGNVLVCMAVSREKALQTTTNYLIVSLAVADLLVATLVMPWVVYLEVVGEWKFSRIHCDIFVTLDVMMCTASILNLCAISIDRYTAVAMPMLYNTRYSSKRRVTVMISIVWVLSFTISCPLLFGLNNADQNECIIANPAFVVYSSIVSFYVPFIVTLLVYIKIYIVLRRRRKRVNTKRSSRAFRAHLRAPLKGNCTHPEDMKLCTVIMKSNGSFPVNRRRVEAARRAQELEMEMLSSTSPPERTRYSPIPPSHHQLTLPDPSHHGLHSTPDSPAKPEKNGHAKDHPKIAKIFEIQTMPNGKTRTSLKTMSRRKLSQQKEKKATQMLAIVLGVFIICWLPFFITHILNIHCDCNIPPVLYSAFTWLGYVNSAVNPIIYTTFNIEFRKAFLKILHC
Description: Inhibition of dopamine D2 receptor (unknown origin) upto 10000 nM

[37] = target: Muscarinic acetylcholine receptor M1 (Homo sapiens) (UniProt P11229); conditions: dose <= 10000.0 nM
Sequence of Muscarinic acetylcholine receptor M1 (Homo sapiens) (P11229 whole entry): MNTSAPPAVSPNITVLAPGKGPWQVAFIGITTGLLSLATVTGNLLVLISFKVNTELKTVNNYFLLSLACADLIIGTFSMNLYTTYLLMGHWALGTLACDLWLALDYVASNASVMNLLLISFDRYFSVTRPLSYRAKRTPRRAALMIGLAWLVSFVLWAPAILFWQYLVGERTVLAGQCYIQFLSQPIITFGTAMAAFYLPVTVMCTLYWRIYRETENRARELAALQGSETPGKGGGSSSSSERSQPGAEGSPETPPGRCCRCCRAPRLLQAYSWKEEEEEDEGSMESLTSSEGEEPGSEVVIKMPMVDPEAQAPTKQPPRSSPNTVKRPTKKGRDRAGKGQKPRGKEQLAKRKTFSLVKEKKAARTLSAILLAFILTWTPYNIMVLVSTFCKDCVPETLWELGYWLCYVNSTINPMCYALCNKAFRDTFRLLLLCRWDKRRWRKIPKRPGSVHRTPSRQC
Description: Inhibition of muscarinic M1 receptor (unknown origin) upto 10000 nM

[38] = target: Vasopressin V1a receptor (Homo sapiens) (UniProt P37288); conditions: dose <= 10000.0 nM
Sequence of Vasopressin V1a receptor (Homo sapiens) (P37288 whole entry, looked up): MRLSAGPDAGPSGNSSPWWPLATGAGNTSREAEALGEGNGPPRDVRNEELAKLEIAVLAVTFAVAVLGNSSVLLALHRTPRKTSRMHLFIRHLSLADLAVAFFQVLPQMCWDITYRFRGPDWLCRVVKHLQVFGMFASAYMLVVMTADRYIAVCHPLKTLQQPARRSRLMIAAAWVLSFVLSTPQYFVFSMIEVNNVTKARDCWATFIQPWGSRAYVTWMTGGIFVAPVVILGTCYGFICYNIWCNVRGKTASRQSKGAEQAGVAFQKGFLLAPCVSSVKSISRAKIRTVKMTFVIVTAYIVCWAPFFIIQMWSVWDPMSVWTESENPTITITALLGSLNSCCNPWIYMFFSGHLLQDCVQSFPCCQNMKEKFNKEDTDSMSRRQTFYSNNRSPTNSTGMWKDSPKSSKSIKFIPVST
Description: Inhibition of V1A receptor (unknown origin) upto 10000 nM

[39] = target: Potassium voltage-gated channel subfamily A member 5 (Homo sapiens) (UniProt P22460); conditions: dose <= 10000.0 nM
Sequence of Potassium voltage-gated channel subfamily A member 5 (Homo sapiens) (P22460 whole entry): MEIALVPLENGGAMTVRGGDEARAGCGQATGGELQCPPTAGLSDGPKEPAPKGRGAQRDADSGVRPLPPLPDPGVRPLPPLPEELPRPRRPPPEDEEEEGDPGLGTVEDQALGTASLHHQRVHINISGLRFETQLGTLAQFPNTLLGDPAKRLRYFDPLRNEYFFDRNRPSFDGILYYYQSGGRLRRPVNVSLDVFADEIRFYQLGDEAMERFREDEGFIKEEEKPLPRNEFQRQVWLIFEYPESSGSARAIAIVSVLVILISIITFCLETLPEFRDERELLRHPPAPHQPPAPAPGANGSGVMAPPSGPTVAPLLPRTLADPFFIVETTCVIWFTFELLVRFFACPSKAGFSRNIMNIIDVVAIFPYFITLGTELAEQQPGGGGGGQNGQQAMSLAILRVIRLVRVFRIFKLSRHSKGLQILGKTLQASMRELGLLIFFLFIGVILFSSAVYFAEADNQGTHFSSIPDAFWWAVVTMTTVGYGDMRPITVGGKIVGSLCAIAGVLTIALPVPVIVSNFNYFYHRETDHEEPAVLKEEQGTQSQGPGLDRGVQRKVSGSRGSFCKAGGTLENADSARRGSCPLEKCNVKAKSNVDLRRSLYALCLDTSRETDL
Description: Inhibition of Kv1.5 channel (unknown origin) upto 10000 nM

[40] = target: cGMP-inhibited 3',5'-cyclic phosphodiesterase 3A (Homo sapiens) (UniProt Q14432); conditions: dose <= 10000.0 nM
Description: Inhibition of PDE3A (unknown origin) upto 10000 nM

[41] = target: Sodium-dependent serotonin transporter (Homo sapiens) (UniProt P31645); conditions: dose <= 10000.0 nM
Sequence of Sodium-dependent serotonin transporter (Homo sapiens) (P31645 whole entry, looked up): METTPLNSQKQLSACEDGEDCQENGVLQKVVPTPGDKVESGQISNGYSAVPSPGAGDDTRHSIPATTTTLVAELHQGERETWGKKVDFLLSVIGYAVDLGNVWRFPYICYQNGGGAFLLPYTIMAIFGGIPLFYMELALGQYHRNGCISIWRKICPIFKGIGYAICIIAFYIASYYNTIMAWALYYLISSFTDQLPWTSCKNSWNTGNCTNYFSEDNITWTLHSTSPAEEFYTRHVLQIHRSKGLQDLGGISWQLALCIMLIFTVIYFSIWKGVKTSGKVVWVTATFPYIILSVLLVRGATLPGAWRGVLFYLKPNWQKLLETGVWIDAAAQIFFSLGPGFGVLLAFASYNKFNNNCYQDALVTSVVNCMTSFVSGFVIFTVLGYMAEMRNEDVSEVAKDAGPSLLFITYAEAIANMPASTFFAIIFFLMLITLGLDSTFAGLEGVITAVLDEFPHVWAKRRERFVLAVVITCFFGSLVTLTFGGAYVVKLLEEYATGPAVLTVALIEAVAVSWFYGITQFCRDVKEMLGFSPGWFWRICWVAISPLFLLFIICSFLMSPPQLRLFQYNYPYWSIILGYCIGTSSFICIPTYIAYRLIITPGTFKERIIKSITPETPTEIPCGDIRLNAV
Description: Inhibition of SERT (unknown origin) upto 10000 nM

Compound: CC(C)(O)[C@H]1CC[C@H](NC(=O)c2cnc3nc(C4CC4)ccc3c2)CC1
- half-life [1]: > 3 h
- fraction unbound (Albumin): 0.2
- half-life [2]: 2.9 h
- clearance [3]: 4.5 mL/min/kg
- Vd [4]: 1.6 L/kg
- IC50 [5]: > 10 µM
- inhibition (INH) [6]: Not Active
- IC50 (Cytochrome P450 3A4): > 100 µM
- Ratio EC50 [7]: 10
- Ratio EC50 [8]: 10
- ED50 (Mus musculus [9]): 3 mg/kg
- Cmax [10]: 1700 ng/mL
- AUC(0-t) at 1032 h [11]: 1.1 µg·h/mL
- fCmax [12]: 49 ng/mL
- Activity [13]: Non-Toxic
- Kp at 1032 h [14]: 0.56
- Activity [15]: Non-Toxic
- Activity [16]: Non-Toxic
- Activity [17]: Toxic
- Activity [18]: Toxic
- AUC at 168 h [19]: 120 µg·h/mL
- AUC at 168 h [20]: 410 µg·h/mL
- Cmax [21]: 57000 ng/mL
- Activity [22]: Non-Toxic
- Activity [23]: Toxic
- Activity [24]: Toxic
- Activity [25]: Toxic
- AUC at 96 h [26]: 430 µg·h/mL
- Cmax [27]: 13000 ng/mL
- Cmax [28]: 34000 ng/mL
- Cmax [29]: 210000 ng/mL
- EC50 (Mus musculus [30]): 0.0026 µM
- inhibition [31]: inactive
- inhibition [32]: inactive
- inhibition [33]: inactive
- inhibition [34]: inactive
- inhibition [35]: inactive
- inhibition [36]: inactive
- inhibition [37]: inactive
- inhibition [38]: inactive
- inhibition [39]: inactive
- inhibition [40]: inactive
- inhibition [41]: inactive
